Earlier results as cited in patent publication US20180027805A1, “ACID HERBICIDE-CONTAINING COMPOSITIONS, PRECURSORS, DERIVATIVES, AND METHODS” (priority 2015, published 2018).

Compound	pKa
N#Cc1cc(Br)c(O)c(Br)c1 [Bromoxynil]	4.06
CC(Oc1ccc(Oc2ccc(Cl)cc2Cl)cc1)C(=O)O (centres unmarked) [Diclofop]	3.57
Imazamethbenz	2.9
CC(Oc1ccc(Oc2ncc(C(F)(F)F)cc2Cl)cc1)C(=O)O (centres unmarked) [Haloxyfop]	4.33
C[C@@H](Oc1ccc(Oc2ccc(C(F)(F)F)cn2)cc1)C(=O)O [Fluazifop-p]	2.98
O=C(O)COc1nc(Cl)c(Cl)cc1Cl [Triclopyr, 3,5,6-trichloro-2-pyridyloxyacetic acid]	2.68
CC(C)C1(C)N=C(c2nc3ccccc3cc2C(=O)O)NC1=O (centres unmarked) [Imazaquin]	3.8
COc1c(Cl)ccc(Cl)c1C(=O)O [Dicamba, 3,6-dichloro-O-anisic acid]	1.87
O=C(O)c1cc(Oc2ccc(C(F)(F)F)cc2Cl)ccc1[N+](=O)[O-] [Acifluorfen]	3.86
O=C(O)CCCOc1ccc(Cl)cc1Cl [2,4-DB]	4.8
Nc1c(Cl)c(Cl)nc(C(=O)O)c1Cl [Picloram]	2.3
